# Laboratory results: patent US8575114B2, “SGLT-2 inhibitors, methods of making them, and uses thereof” (Albany Molecular Research, Inc., priority 2010, dated 2013)
# Tests used:
# hSGLT-2 = hSGLT-2 (Homo sapiens (Human), UniProt P31639); assay: [14C]AMG uptake inhibition in CHO-K1/hSGLT-2 cells; format: cell-based; details: 4 μM [14C]AMG, 3-hr incubation at 37° C., read-out: SGLT2, IC50
# Protocol: The inhibitory activity of the compounds of this invention against the SGLT-1 or SGLT-2 transporters can be determined by the following assay. […] CHO-K1 cells transfected with pcDNA3.1 (Invitrogen Corp., Carlsbad, Calif.) containing either the full-length hSGLT-1 or hSGLT-2 using Lipofectamine 2000 (Invitrogen Corp., Carlsbad, Calif.) were selected for stable incorporation of the construct by resistance to the selective pressure of Geneticin (450 μg/ml; Invitrogen Corp., Carlsbad, Calif.). Monoclonal cell lines isolated by minimal dilution were screened for uptake activity of radiolabled methyl α-D-glucopyranoside ([^14C]AMG), a non-metabolizable glucose analogue, and a single clone for each transporter was selected for maximal transporter activity to be used for evaluating the inhibitory activity of the compounds of this invention. In brief, 35,000 cells (CHO-K1/hSGLT-1 or CHO-K1/hSGLT-2) were plated per well of a black tissue culture treated 96-well plate in Ham's F12 media supplemented with 10% heat inactivated FBS and allowed to attached overnight at 37° C. and 5% CO2. Compounds were serially diluted 3-fold in DMSO generating a nine (9) data point dose response curve for each compound. Two replicates were performed per determination. […] Following a 3-hr incubation at 37° C. and 5% CO2, the uptake reaction was stopped by washing the cells three (3) times with ice-cold D-PBS and then lysing the cells with 50 μl of Microscint-20. […] Data were fit to an empirical four-parameter model to determine the inhibitor concentration at half-maximal response (IC50). The assay window was established by control wells incubated with [^14C]AMG in the presence or absence of sodium. A dose response curve for phlorizin was generated on every plate as a positive control.
# hSGLT-1 = hSGLT-1 (Homo sapiens (Human), UniProt P13866); assay: [14C]AMG uptake inhibition in CHO-K1/hSGLT-1 cells; format: cell-based; details: 4 μM [14C]AMG, 3-hr incubation at 37° C., read-out: SGLT-1, IC50
# Sequence of hSGLT-1 (P13866 whole entry): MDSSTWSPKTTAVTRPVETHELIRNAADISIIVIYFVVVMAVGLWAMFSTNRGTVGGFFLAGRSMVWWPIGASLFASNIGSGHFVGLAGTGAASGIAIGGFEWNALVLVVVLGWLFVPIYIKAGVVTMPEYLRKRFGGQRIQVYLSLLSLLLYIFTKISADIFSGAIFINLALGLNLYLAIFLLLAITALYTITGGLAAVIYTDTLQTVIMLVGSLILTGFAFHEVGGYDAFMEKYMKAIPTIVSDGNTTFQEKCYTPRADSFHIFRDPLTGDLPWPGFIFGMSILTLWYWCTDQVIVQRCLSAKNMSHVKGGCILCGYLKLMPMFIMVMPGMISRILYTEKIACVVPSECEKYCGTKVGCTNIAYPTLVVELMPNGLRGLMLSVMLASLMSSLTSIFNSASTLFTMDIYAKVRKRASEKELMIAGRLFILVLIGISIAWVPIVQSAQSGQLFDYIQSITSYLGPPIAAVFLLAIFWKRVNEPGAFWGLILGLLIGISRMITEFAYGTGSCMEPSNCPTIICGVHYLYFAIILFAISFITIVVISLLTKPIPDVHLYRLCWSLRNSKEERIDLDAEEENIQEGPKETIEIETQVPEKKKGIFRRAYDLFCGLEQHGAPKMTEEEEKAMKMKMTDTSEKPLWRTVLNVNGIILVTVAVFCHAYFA
# From the text: The inhibitory activity of the compounds of this invention against the SGLT-1 or SGLT-2 transporters can be determined by the following assay. The cDNAs for the human genes of SGLT-1 (SLC5A1—solute carrier family 5 sodium/glucose cotransporter member 1; Accession #NM_000343.1) or SGLT-2 (SLC5A2—member 2; Accession #NM_003041.2) were synthesized (OriGene Technologies, Inc.) and sub-cloned into the mammalian expression vector, pcDNA3.1 (Invitrogen Corp., Carlsbad, Calif.) using standard molecular biology techniques. CHO-K1 cells transfected with pcDNA3.1 (Invitrogen Corp., Carlsbad, Calif.) containing either the full-length hSGLT-1 or hSGLT-2 using Lipofectamine 2000 (Invitrogen Corp., Carlsbad, Calif.) were selected for stable incorporation of the construct by resistance to the selective pressure of Geneticin (450 μg/ml; Invitrogen Corp., Carlsbad, Calif.). Monoclonal cell lines isolated by minimal dilution were screened for uptake activity of radiolabled methyl α-D-glucopyranoside ([^14C]AMG), a non-metabolizable glucose analogue, and a single clone for each transporter was selected for maximal transporter activity to be used for evaluating the inhibitory activity of the compounds of this invention. In brief, 35,000 cells (CHO-K1/hSGLT-1 or CHO-K1/hSGLT-2) were plated per well of a black tissue culture treated 96-well plate in Ham's F12 media supplemented with 10% heat inactivated FBS and allowed to attached overnight at 37° C. and 5% CO2. Compounds were serially diluted 3-fold in DMSO generating a nine (9) data point dose response curve for each compound. Two replicates were performed per determination. The compounds were then diluted into Uptake Buffer (10 mM Hepes, 5 mM Tris, 137 mM NaCl, 5.4 mM KCl, 2.8 mM CaCl2, and 1.2 mM MgSO4, pH 7.4) with a final DMSO concentration of 0.9% (v/v). After the overnight incubation and prior to compound treatment, the cells were washed twice with Sodium Free Buffer in which the sodium chloride was replaced with 137 mM Choline Chloride, and then incubated with 4 μM [^14C]AMG in Uptake Buffer in the presence or absence of diluted compound. Following a 3-hr incubation at 37° C. and 5% CO2, the uptake reaction was stopped by washing the cells three (3) times with ice-cold D-PBS and then lysing the cells with 50 μl of Microscint-20. After 15-min, the amount of radioactivity that was incorporated into the cells was quantified using a Microbeta reader. Data were fit to an empirical four-parameter model to determine the inhibitor concentration at half-maximal response (IC50). The assay window was established by control wells incubated with [^14C]AMG in the presence or absence of sodium. A dose response curve for phlorizin was generated on every plate as a positive control.
# Sequence of hSGLT-2 (P31639 whole entry): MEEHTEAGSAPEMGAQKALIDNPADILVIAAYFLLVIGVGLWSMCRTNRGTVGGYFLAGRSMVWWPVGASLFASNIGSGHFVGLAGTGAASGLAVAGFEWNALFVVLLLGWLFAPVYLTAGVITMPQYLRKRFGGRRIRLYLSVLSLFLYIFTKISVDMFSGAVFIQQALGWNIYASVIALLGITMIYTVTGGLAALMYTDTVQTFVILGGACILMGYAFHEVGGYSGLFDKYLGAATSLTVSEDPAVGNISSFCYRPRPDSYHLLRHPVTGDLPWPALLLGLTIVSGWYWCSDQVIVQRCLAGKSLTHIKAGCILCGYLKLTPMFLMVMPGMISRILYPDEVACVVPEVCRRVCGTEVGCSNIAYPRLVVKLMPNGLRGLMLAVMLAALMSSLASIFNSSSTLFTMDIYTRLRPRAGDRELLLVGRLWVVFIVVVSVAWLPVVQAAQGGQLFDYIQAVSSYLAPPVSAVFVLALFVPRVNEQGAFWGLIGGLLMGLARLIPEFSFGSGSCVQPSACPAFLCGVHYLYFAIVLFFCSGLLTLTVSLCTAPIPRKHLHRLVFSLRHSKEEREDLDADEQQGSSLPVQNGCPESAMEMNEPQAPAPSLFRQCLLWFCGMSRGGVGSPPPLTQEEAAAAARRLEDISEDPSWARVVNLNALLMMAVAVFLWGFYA
IC50 (hSGLT-2) [µM],IC50 (hSGLT-1) [µM],Compound
0.329,6.25,"O=C1CN(c2ccc(Cc3cc([C@@H]4O[C@H](CO)[C@@H](O)[C@H](O)[C@H]4O)ccc3Cl)cc2)C(=O)N1C(c1ccccc1)(c1ccccc1)c1ccccc1 [III-1, 1-(4-(2-chloro-5-((2S,3R,4R,5S,6R)-3,4,5-trihydroxy-6-(hydroxymethyl)tetrahydro-2H-pyran-2-yl)benzyl)phenyl)-3-tritylimidazolidine-2,4-dione]"
0.0811,61.2,"O=c1n(Cc2cc([C@@H]3O[C@H](CO)[C@@H](O)[C@H](O)[C@H]3O)ccc2Cl)nc2ccc(Cl)cn12 [I-8, 6-chloro-2-(2-chloro-5-((2S,3R,4R,5S,6R)-3,4,5-trihydroxy-6-(hydroxymethyl)tetrahydro-2H-pyran-2-yl)benzyl)-[1,2,4]triazolo[4,3-a]pyridin-3(2H)-one]"
